Experimental data reported in DBAASP.
≈ marks a conversion by molar mass, not a printed value. Values belong to the compound of their own block, whether it stands above or below them.

Experiments:
Test in all cases: ≥ marks a high value that may be exact or a test limit, other limits are often not marked, values filed in µg/mL are converted to µM
Staphylococcus aureus = test system: Staphylococcus aureus
Pseudomonas aeruginosa = test system: Pseudomonas aeruginosa
Escherichia coli = test system: Escherichia coli
Staphylococcus aureus MR = test system: Staphylococcus aureus MR
[1] = test system: Staphylococcus aureus ATCC BAA-1556
[2] = test system: Pseudomonas aeruginosa H1001
[3] = test system: Salmonella enterica subsp. enterica serovar Pullorum C79-13
[4] = test system: Enterococcus faecalis ATCC 29212
[5] = test system: Bacillus subtilis CMCC 63501
Escherichia coli UB1005 = test system: Escherichia coli UB1005
[6] = test system: Staphylococcus aureus ATCC 29213
Escherichia coli K99 = test system: Escherichia coli K99
Escherichia coli 078 = test system: Escherichia coli 078
[7] = test system: Salmonella enterica subsp. enterica serovar Typhimurium C77-31
[8] = test system: Staphylococcus epidermidis ATCC 12228
[9] = test system: Escherichia coli ATCC 25922
[10] = test system: Salmonella enterica subsp. enterica serovar Typhimurium ATCC 14028
Escherichia coli K88 = test system: Escherichia coli K88
[11] = test system: Staphylococcus aureus ATCC 25923
[12] = test system: Salmonella enterica serovar Typhimurium
[13] = test system: Staphylococcus epidermidis
Candida albicans = test system: Candida albicans
[14] = test system: Pseudomonas aeruginosa H103
[15] = test system: Pseudomonas aeruginosa ATCC 10145
[16] = test system: Pseudomonas syringae pv. syringae EPS 94
[17] = test system: Erwinia amylovora PMV 6076
Acinetobacter baumannii = test system: Acinetobacter baumannii
[18] = test system: Pseudomonas aeruginosa PAO1

SMILES: CC[C@H](C)[C@H](NC(=O)[C@H](C)NC(=O)[C@H](CC(C)C)NC(=O)[C@H](CCCN=C(N)N)NC(=O)[C@H](CC(C)C)NC(=O)[C@H](C)N)C(=O)N[C@@H](CCCN=C(N)N)C(=O)N[C@@H](CCCCN)C(=O)N[C@@H](CCCN=C(N)N)C(N)=O [ALRLAIRKR]
- MIC (Staphylococcus aureus): 4.56 µM (≈ 5 µg/mL)
- MIC (Pseudomonas aeruginosa): 13.7 µM (≈ 15 µg/mL)
- MIC (Escherichia coli): 3.65 µM (≈ 4 µg/mL)
- MIC (Staphylococcus aureus MR): ≥ 43.8 µM

SMILES: CC[C@H](C)[C@H](NC(=O)[C@H](Cc1c[nH]c2ccccc12)NC(=O)[C@H](CCCN=C(N)N)NC(=O)[C@H](CCCN=C(N)N)NC(=O)[C@H](Cc1c[nH]c2ccccc12)NC(=O)[C@@H](N)CCCCN)C(=O)N[C@@H](C)C(=O)N[C@@H](Cc1c[nH]c2ccccc12)C(=O)N[C@@H](CC(C)C)C(N)=O [KWRRWIAWL]
- MIC [1]: 12.5 µM (≈ 16.4 µg/mL)

SMILES: CC(C)C[C@H](NC(=O)[C@H](CC(C)C)NC(=O)[C@H](CCCCN)NC(=O)[C@H](CC(C)C)NC(=O)[C@H](CC(C)C)NC(=O)[C@H](Cc1c[nH]c2ccccc12)NC(=O)[C@@H](N)CCCCN)C(N)=O [KWLLKLL]
- MIC [1]: ≥ 100 µM

SMILES: CC[C@H](C)[C@H](NC(=O)[C@H](C)NC(=O)[C@@H](NC(=O)[C@H](CCCCN)NC(=O)[C@H](CCCCN)NC(=O)[C@H](Cc1cnc[nH]1)NC(=O)[C@@H](NC(=O)[C@H](CCCN=C(N)N)NC(=O)[C@H](CS)NC(=O)[C@@H](N)CC(C)C)C(C)C)[C@@H](C)CC)C(=O)O [LCRVHKKIAI]
- MIC [2]: ≥ 169 µM

SMILES: CC[C@H](C)[C@H](NC(=O)[C@H](Cc1c[nH]c2ccccc12)NC(=O)[C@H](CCCN=C(N)N)NC(=O)[C@H](CCCN=C(N)N)NC(=O)[C@H](Cc1c[nH]c2ccccc12)NC(=O)[C@@H](N)CCCCN)C(N)=O [KWRRWI]
- MIC [1]: ≥ 100 µM

SMILES: CC(C)C[C@H](NC(=O)[C@H](CCCCN)NC(=O)[C@H](CC(C)C)NC(=O)[C@H](CC(C)C)NC(=O)[C@H](CC(C)C)NC(=O)[C@H](CCCCN)NC(=O)[C@@H](N)CC(C)C)C(N)=O [LKLLLKL]
- MIC [1]: ≥ 100 µM

SMILES: C[C@H](NC(=O)[C@H](C)NC(=O)[C@H](CCCCN)NC(=O)[C@H](CCCCN)NC(=O)[C@H](C)NC(=O)[C@H](Cc1ccccc1)NC(=O)[C@H](CCCCN)NC(=O)[C@H](CCCCN)NC(=O)[C@H](C)NC(=O)[C@H](C)NC(=O)[C@H](CCCCN)NC(=O)[C@H](CCCCN)NC(=O)[C@H](C)NC(=O)[C@H](Cc1ccccc1)NC(=O)[C@@H](N)CCCCN)C(=O)N[C@@H](CCCCN)C(=O)O [KFAKKAAKKFAKKAAK]
- MIC [15]: ≥ 142 µM

SMILES: CC[C@H](C)[C@H](NC(=O)[C@H](CCCCN)NC(=O)[C@H](Cc1c[nH]c2ccccc12)NC(=O)[C@H](CCCCN)NC(=O)[C@@H](N)CCCCN)C(=O)N[C@H](C(=O)N[C@H](C(=O)N[C@H](C(=O)N[C@@H](CCCN=C(N)N)C(=O)N[C@@H](Cc1c[nH]c2ccccc12)C(=O)N[C@@H](CCCN=C(N)N)C(=O)N[C@@H](CCCN=C(N)N)C(N)=O)[C@@H](C)CC)C(C)C)C(C)C [KKWKIVVIRWRR]
- MIC [2]: 1.2 µM (≈ 2 µg/mL)

SMILES: CC[C@H](C)[C@H](NC(=O)[C@H](C)NC(=O)[C@H](CC(C)C)NC(=O)[C@H](CC(C)C)NC(=O)[C@H](Cc1c[nH]c2ccccc12)NC(=O)[C@H](C)N)C(=O)N[C@@H](CCCN=C(N)N)C(=O)N[C@@H](CCCCN)C(=O)N[C@@H](CCCN=C(N)N)C(N)=O [AWLLAIRKR]
- MIC (Staphylococcus aureus): 2.66 µM (≈ 3 µg/mL)
- MIC (Pseudomonas aeruginosa): 3.55 µM (≈ 4 µg/mL)
- MIC (Escherichia coli): 4.44 µM (≈ 5 µg/mL)
- MIC (Staphylococcus aureus MR): 22.2 µM (≈ 25 µg/mL)

SMILES: CC[C@H](C)[C@H](NC(=O)[C@H](Cc1c[nH]c2ccccc12)NC(=O)[C@H](CC(C)C)NC(=O)[C@H](CCCN=C(N)N)NC(=O)[C@H](Cc1c[nH]c2ccccc12)NC(=O)[C@@H](N)CCCCN)C(=O)N[C@@H](CCCN=C(N)N)C(=O)N[C@@H](Cc1c[nH]c2ccccc12)C(=O)N[C@@H](CC(C)C)C(N)=O [KWRLWIRWL]
- MIC [1]: 12.5 µM (≈ 16.9 µg/mL)

The next lines start with the values.

- MIC [2]: 0.123 µM (≈ 0.3 µg/mL)
SMILES: CC[C@H](C)[C@H](NC(=O)[C@H](CCCN=C(N)N)NC(=O)[C@H](CCCN=C(N)N)NC(=O)[C@@H]1CCCN1C(=O)[C@@H]1CCCN1C(=O)[C@H](CCCN=C(N)N)NC(=O)[C@@H]1CCCN1C(=O)[C@H](CCCN=C(N)N)NC(=O)[C@@H]1CCCN1C(=O)[C@H](CC(C)C)NC(=O)[C@H](Cc1ccc(O)cc1)NC(=O)[C@@H]1CCCN1C(=O)[C@@H]1CCCN1C(=O)[C@H](CCCCN)NC(=O)[C@@H]1CCCN1C(=O)[C@@H](N)C(C)C)C(=O)N[C@@H](Cc1ccc(O)cc1)C(=O)N[C@@H](CC(N)=O)C(=O)N[C@@H](CCCN=C(N)N)C(=O)NCC(=O)O [VPKPPYLPRPRPPRRIYNRG]

- MIC [3]: 1 µM (≈ 1.54 µg/mL)
- MIC [4]: 4 µM (≈ 6.16 µg/mL)
- MIC [5]: 2 µM (≈ 3.08 µg/mL)
- MIC (Escherichia coli UB1005): 1 µM (≈ 1.54 µg/mL)
- MIC [6]: 4 µM (≈ 6.16 µg/mL)
- MIC (Escherichia coli K99): 4 µM (≈ 6.16 µg/mL)
- MIC (Escherichia coli 078): 4 µM (≈ 6.16 µg/mL)
- MIC [7]: 4 µM (≈ 6.16 µg/mL)
- MIC [8]: 4 µM (≈ 6.16 µg/mL)
- MIC [9]: 2 µM (≈ 3.08 µg/mL)
- MIC [10]: 4 µM (≈ 6.16 µg/mL)
- MIC (Escherichia coli K88): 1 µM (≈ 1.54 µg/mL)
- MIC [11]: 4 µM (≈ 6.16 µg/mL)
SMILES: CC[C@H](C)[C@H](NC(=O)[C@H](Cc1c[nH]c2ccccc12)NC(=O)[C@H](CCCCN)NC(=O)[C@H](CC(C)C)NC(=O)[C@@H](NC(=O)[C@H](Cc1c[nH]c2ccccc12)NC(=O)CNC(=O)[C@@H](NC(=O)[C@H](CCCCN)NC(=O)[C@H](CCCCN)NC(=O)[C@H](CC(C)C)NC(=O)[C@@H](N)CCCN=C(N)N)[C@@H](C)CC)C(C)C)C(N)=O [RLKKIGWVLKWI]

- MIC [4]: 3.3 µM (≈ 4.93 µg/mL)
- MIC (Escherichia coli UB1005): 1.6 µM (≈ 2.39 µg/mL)
- MIC [12]: 3.3 µM (≈ 4.93 µg/mL)
- MIC [13]: 1.6 µM (≈ 2.39 µg/mL)
- MIC (Candida albicans): 13.2 µM (≈ 19.7 µg/mL)
- MIC [14]: 13.2 µM (≈ 19.7 µg/mL)
- MIC [11]: 3.3 µM (≈ 4.93 µg/mL)
SMILES: CC(C)[C@H](NC(=O)[C@H](CCCN=C(N)N)NC(=O)[C@H](Cc1c[nH]c2ccccc12)NC(=O)[C@H](Cc1c[nH]c2ccccc12)NC(=O)[C@H](Cc1c[nH]c2ccccc12)NC(=O)[C@H](CCCN=C(N)N)NC(=O)[C@H](Cc1c[nH]c2ccccc12)NC(=O)[C@@H](N)CCCN=C(N)N)C(=O)N[C@@H](Cc1ccc(O)cc1)C(=O)O [RWRWWWRVY]

- MIC [16]: 3.54 µM (≈ 9.25 µg/mL)
- MIC [17]: 3.54 µM (≈ 9.25 µg/mL)
SMILES: CC[C@H](C)[C@H](NC(=O)[C@H](CCCCN)NC(=O)[C@H](CCCCN)NC(=O)[C@H](Cc1ccccc1)NC(=O)[C@H](CC(C)C)NC(=O)[C@H](CCCCN)NC(=O)[C@H](CCCCN)NC(=O)[C@@H](N)CO)C(=O)N[C@@H](CC(C)C)C(=O)N[C@@H](CCCCN)C(=O)N[C@@H](Cc1ccc(O)cc1)C(=O)N[C@@H](CC(C)C)C(=O)N[C@@H](C)C(=O)NCC(=O)N1CCC[C@H]1C(=O)N[C@@H](C)C(=O)N[C@@H](CCCCN)C(=O)N[C@@H](Cc1ccccc1)C(=O)N[C@@H](CC(C)C)C(=O)N[C@@H](Cc1cnc[nH]1)C(=O)N[C@@H](CO)C(=O)N[C@@H](C)C(=O)N[C@@H](CCCCN)C(=O)O [SKKLFKKILKYLAGPAKFLHSAK]

- MIC [1]: 3.12 µM (≈ 4.51 µg/mL)
SMILES: CC(C)C[C@H](NC(=O)[C@H](CCCN=C(N)N)NC(=O)[C@H](Cc1c[nH]c2ccccc12)NC(=O)[C@H](CC(C)C)NC(=O)[C@H](Cc1c[nH]c2ccccc12)NC(=O)[C@H](Cc1c[nH]c2ccccc12)NC(=O)[C@H](CC(C)C)NC(=O)[C@H](Cc1c[nH]c2ccccc12)NC(=O)[C@@H](N)Cc1c[nH]c2ccccc12)C(N)=O [WWLWWLWRL]

- MIC (Staphylococcus aureus): 15 µM (≈ 22.6 µg/mL)
- MIC (Pseudomonas aeruginosa): 21.2 µM (≈ 32 µg/mL)
- MIC [12]: 10.6 µM (≈ 16 µg/mL)
- MIC (Acinetobacter baumannii): 30 µM (≈ 45.3 µg/mL)
- MIC (Escherichia coli): > 84.7 µM
- MIC [18]: 21.2 µM (≈ 32 µg/mL)
- MIC [9]: 10.6 µM (≈ 16 µg/mL)
- MIC [11]: 10.6 µM (≈ 16 µg/mL)
SMILES: CC[C@H](C)[C@H](NC(=O)[C@H](CCCN=C(N)N)NC(=O)[C@H](CC(C)C)NC(=O)[C@H](CCC(N)=O)NC(=O)[C@@H](N)C(C)C)C(=O)N[C@@H](CCCN=C(N)N)C(=O)N[C@H](C(=O)N[C@@H](CS)C(=O)N[C@H](C(=O)N[C@H](C(=O)N[C@@H](CCCN=C(N)N)C(=O)N[C@@H](CCCN=C(N)N)C(=O)O)[C@@H](C)CC)C(C)C)C(C)C [VQLRIRVCVIRR]
